The numbers were not newly measured in US6783757B2, “Composition and method for increasing exorphin catabolism to treat autism” (Kirkman Group, Inc., priority 2000, dated 2004), which cites them from elsewhere.

The data set relates to DPPIV. The settings on record: cultured mouse intestinal wall cells (enterocyte cells).

As for `O=C[C@H](O)[C@@H](O)[C@@H](O)[C@H](O)CO` [galactose], the “expression of DPPIV” value is listed as “increase the expression of DPPIV”.
